Experimental findings from patent publication US20030113784A1, “Regulated expression of recombinant DNA” (priority 2001, published 2003) are described below.

This assay concerns β-galactosidase expression in C2C12 myoblasts cotransfected with Op8iME and Lac-R. Description: Time course of IPTG induction of β-galactosidase expression (chemiluminescent assay of cell lysates). The settings on record: 5 mM IPTG added sixteen hours post-transfection. The format is cell-based. On the procedure: The time course of IPTG induction of β-galactosidase expression in one of the muscle enhancer and SV40 intron containing constructs was determined. The kinetics of Op8iME induction in C2C12 myoblasts were plotted over the course of 48 hours. Op8iME and the Lac-R were transiently cotransfected into C2C12 myoblasts. Sixteen hours post-transfection, 5 mM IPTG was added. β-galactosidase expression was monitored in cell lysates by chemiluminescent assay (Promega) at a selection of time-points from 1 h to 48 h. IPTG-dependent induction of β-galactosidase began at 4h and increased over time, with a maximum peak at 24 h (FIG. 11).

As for `CC(C)S[C@@H]1O[C@H](CO)[C@H](O)[C@H](O)[C@H]1O` [IPTG, isopropylthiogalactoside], the “time of maximum peak of IPTG-dependent induction of β-galactosidase” value was 24 h. In addition, the “start of IPTG-dependent induction of β-galactosidase” value (time-points 1 h to 48 h) is 4 h.
